Measurements as given in ChEMBL document CHEMBL1152924, “Synthetic staurosporines via a ring closing metathesis strategy as potent JAK3 inhibitors and modulators of allergic responses” (Bioorg Med Chem Lett, 2009).
pIC50: −log10 of the molar value.

Legend:
[1] = test system: Jurkat; test: Antiproliferative activity against JAK3 expressing human resting Jurkat cells; format: functional, cell-based
[2] = biological target: Tyrosine-protein kinase SYK (Homo sapiens, UniProt P43405); test: Inhibition of SYK-mediated inhibition of biotinylated substrate phosphorylation
[3] = biological target: MAP kinase-activated protein kinase 2 (Homo sapiens, UniProt P49137); test: Inhibition of MK2-mediated inhibition of biotinylated substrate phosphorylation
Chain of MAP kinase-activated protein kinase 2 (P49137 whole entry): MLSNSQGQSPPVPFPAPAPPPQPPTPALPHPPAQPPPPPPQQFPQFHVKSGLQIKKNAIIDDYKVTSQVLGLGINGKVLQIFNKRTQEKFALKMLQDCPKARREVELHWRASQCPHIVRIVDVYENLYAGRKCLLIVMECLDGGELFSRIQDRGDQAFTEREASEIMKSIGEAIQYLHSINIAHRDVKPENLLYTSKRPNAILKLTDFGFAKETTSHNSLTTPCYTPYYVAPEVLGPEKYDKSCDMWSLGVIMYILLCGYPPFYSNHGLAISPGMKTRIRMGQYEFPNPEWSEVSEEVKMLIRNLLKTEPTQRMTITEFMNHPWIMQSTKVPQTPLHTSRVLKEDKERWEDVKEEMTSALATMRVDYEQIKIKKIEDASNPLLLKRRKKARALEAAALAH

[4] = test system: Jurkat; test: Antiproliferative activity against JAK3 expressing IL2-stimulated human Jurkat cells; format: functional, cell-based
[5] = biological target: Tyrosine-protein kinase Lck (Homo sapiens, UniProt P06239); test: Inhibition of LCK-mediated inhibition of biotinylated substrate phosphorylation
Chain of Tyrosine-protein kinase Lck (P06239 whole entry): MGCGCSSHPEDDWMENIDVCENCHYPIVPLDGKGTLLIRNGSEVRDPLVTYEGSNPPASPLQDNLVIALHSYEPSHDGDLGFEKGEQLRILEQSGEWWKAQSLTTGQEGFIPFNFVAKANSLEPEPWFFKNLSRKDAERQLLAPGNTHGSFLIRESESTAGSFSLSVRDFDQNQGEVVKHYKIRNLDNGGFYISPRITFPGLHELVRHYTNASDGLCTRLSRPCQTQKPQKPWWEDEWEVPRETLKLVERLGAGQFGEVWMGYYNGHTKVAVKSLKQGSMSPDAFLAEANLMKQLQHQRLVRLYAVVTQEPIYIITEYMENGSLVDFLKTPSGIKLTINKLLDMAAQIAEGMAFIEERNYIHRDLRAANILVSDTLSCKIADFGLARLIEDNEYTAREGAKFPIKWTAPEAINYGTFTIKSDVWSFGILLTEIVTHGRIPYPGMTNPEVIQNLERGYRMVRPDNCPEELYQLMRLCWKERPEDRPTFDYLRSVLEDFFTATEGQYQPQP

[6] = biological target: T1, Tyrosine-protein kinase JAK3 (Homo sapiens, UniProt P52333); test: Inhibition of JAK3 expressed in insect Sf21 cells assessed as inhibition of biotinylated substrate phosphorylation
T1 sequence (P52333 whole entry): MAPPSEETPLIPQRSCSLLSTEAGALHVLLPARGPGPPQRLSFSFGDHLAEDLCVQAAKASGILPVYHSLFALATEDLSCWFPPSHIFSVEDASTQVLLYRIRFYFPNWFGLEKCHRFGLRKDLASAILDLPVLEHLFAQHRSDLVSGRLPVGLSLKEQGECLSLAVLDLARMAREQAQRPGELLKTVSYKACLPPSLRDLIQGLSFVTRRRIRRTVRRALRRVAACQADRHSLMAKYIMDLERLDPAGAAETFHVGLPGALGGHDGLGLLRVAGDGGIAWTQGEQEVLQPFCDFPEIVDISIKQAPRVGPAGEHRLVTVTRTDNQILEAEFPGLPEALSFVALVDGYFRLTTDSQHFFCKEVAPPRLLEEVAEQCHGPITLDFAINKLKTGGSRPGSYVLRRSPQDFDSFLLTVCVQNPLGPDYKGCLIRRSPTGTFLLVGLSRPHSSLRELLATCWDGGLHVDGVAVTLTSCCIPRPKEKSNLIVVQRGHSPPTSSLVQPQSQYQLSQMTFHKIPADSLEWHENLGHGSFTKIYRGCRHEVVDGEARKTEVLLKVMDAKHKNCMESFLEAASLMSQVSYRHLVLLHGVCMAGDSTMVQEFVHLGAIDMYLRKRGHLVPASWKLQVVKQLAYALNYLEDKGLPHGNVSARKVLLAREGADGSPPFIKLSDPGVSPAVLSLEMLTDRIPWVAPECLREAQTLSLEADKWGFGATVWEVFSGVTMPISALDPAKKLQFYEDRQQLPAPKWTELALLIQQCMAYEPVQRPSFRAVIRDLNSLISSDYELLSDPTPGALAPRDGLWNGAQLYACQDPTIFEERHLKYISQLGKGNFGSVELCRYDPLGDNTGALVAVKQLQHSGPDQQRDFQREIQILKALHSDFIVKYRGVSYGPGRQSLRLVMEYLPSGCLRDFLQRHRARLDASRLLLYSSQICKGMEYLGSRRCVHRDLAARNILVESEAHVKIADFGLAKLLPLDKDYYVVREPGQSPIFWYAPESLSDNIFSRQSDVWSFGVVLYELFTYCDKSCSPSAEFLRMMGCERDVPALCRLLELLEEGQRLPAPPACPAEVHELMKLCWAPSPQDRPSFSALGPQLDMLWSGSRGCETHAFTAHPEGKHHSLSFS

[7] = biological target: T2, Tyrosine-protein kinase ZAP-70 (Homo sapiens, UniProt P43403); test: Inhibition of Zap70-mediated inhibition of biotinylated substrate phosphorylation
T2 sequence (P43403 whole entry): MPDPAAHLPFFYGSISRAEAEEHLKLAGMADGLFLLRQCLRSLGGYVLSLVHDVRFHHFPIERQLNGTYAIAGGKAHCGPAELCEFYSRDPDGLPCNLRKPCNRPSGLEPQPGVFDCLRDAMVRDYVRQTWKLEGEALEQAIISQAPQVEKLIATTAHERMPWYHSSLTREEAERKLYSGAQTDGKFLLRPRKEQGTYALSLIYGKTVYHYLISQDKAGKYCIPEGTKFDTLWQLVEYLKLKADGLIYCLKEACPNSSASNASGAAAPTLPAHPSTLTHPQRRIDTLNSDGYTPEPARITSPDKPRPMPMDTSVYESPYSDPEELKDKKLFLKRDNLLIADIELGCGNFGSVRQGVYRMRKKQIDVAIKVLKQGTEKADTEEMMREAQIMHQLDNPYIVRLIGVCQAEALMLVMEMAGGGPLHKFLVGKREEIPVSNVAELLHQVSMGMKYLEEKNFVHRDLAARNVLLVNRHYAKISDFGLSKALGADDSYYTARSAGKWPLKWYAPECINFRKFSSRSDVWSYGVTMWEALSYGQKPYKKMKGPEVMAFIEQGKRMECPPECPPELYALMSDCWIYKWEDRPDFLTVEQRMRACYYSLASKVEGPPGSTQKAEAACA

[8] = test system: Mus musculus; test: Antiinflammatory activity against ovalbumin-induced asthma in BALB/c mouse model assessed as reduction of eosinophil count in broncheovular lavage fluid at 30 mg/kg, ip measured on day 32 after ovalbumin challenge; format: functional; set-up: scale not given: the % may be the effect or the level left; details: route intraperitoneal
[9] = test system: Mast cell; test: Inhibition of LPS-induced TNFalpha release in mast cells; format: functional, cell-based
[10] = test system: T-cell; test: Inhibition of IL2-induced PHA-stimulated healthy human T cells proliferation by [3H]thymidine assay; format: functional, cell-based
[11] = test system: Mus musculus; test: Antiinflammatory activity against ovalbumin-induced asthma in BALB/c mouse model assessed as reduction in methacoline-induced airway constriction at 30 mg/kg, ip measured on day 32 after ovalbumin challenge; format: functional; set-up: scale not given: the % may be the effect or the level left; details: route intraperitoneal
[12] = test system: Mus musculus; test: Inhibition of ovalbumin-induced IgE production in mouse at 30 mg/kg, ip administered on day 1, 3 and 5 after 1 hr of ovalbumin challenge followed by additional dosing on day 2 and 4 measured on day 8 by ELISA; format: functional; set-up: scale not given: the % may be the effect or the level left; details: route intraperitoneal
[13] = test system: Mus musculus; test: Antiinflammatory activity against ovalbumin-induced asthma in BALB/c mouse model assessed as reduction of neutrophil count in broncheovular lavage fluid at 30 mg/kg, ip measured on day 32 after ovalbumin challenge; format: functional; set-up: scale not given: the % may be the effect or the level left; details: route intraperitoneal
[14] = test system: Mus musculus; test: Inhibition of ovalbumin-induced IgE production in mouse at 10 mg/kg, ip administered on day 1, 3 and 5 after 1 hr of ovalbumin challenge followed by additional dosing on day 2 and 4 measured on day 8 by ELISA; format: functional; set-up: scale not given: the % may be the effect or the level left; details: route intraperitoneal
[15] = test system: Mast cell; test: Inhibition of hexosaminidase release in IgE-stimulated mast cells; format: functional, cell-based

Structure (SMILES) | pIC50 [1] | pIC50 [4] | pIC50 [6] | other results
CC(=O)/C1=C/Cn2c3ccccc3c3c4c(c5c6ccccc6n(c5c32)C1)C(=O)NC4=O | < 5.00 | 6.24 | 8.15 | pIC50 [2]: < 6.00; pIC50 [3]: 6.27; pIC50 [5]: < 6.00; pIC50 [7]: < 6.00
CN(C)C1CCN(C(=O)[C@]2(O)Cn3c4ccccc4c4c5c(c6c7ccccc7n(c6c43)C[C@H]2O)C(=O)NC5=O)C1 (stereo not given in full) | 5.80 | 7.24 | 7.82 | 
O=C1NCc2c1c1c3ccccc3n3c1c1c2c2ccccc2n1C/C=C\C3 | < 5.00 | 6.95 | 7.41 | 
O=C1NCc2c1c1c3ccccc3n3c1c1c2c2ccccc2n1CC/C=C\CC3 | 5.00 | 6.36 |  | 
C=CCn1c2ccccc2c2c3c(c4c5ccccc5n(CC=C)c4c21)C(=O)NC3 |  |  | < 6.70 | 
O=C1NCc2c1c1c3ccccc3n3c1c1c2c2ccccc2n1CC[C@@H](O)[C@@H](O)CC3 (relative stereo) | 6.21 | 7.35 | 7.92 | 
O=C1NCc2c1c1c3ccccc3n3c1c1c2c2ccccc2n1C[C@@H](O)[C@@H](O)C3 (relative stereo) | 5.00 | 7.01 | 8.22 | Activity [8]: 54%; pIC50 [2]: 6.52; pIC50 [3]: < 6.00; pIC50 [9]: 7.74; pIC50 [10]: 7.00; Activity [11]: 90%; Activity [12]: 70%; pIC50 [5]: < 6.00; pIC50 [7]: 6.70; Activity [13]: 54%; Activity [14]: 15%; pIC50 [15]: 7.26
O=C1NCc2c1c1c3ccccc3[nH]c1c1[nH]c3ccccc3c21 [STAUROSPORINONE] |  |  | 7.21 | 

Further lines, with some results ahead:

pIC50 [1] | pIC50 [4] | pIC50 [6] | Structure (SMILES) | other results
5.25 | 6.80 |  | O=C1NC(=O)c2c1c1c3ccccc3n3c1c1c2c2ccccc2n1CC(O)CC3 (stereo not given) | 
< 5.00 | 7.32 | 8.52 | O=C1NC(=O)c2c1c1c3ccccc3n3c1c1c2c2ccccc2n1C[C@H](O)[C@H](O)C3 | 
< 5.00 | 5.54 |  | O=C1NC(=O)c2c1c1c3ccccc3n3c1c1c2c2ccccc2n1CC(O)CCC3 (stereo not given) | 
< 5.00 | 6.65 | 8.05 | O=C1NC(=O)c2c1c1c3ccccc3n3c1c1c2c2ccccc2n1C[C@@](O)(C(=O)O)[C@H](O)C3 (relative stereo) | 
< 5.00 | 6.64 | 8.05 | O=C1NC(=O)c2c1c1c3ccccc3n3c1c1c2c2ccccc2n1C[C@@H](O)[C@@H](O)CC3 (relative stereo) | 
< 5.00 | 7.64 | 9.00 | COC(=O)[C@]1(O)Cn2c3ccccc3c3c4c(c5c6ccccc6n(c5c32)C[C@H]1O)C(=O)NC4=O (relative stereo) | pIC50 [2]: < 6.00; pIC50 [3]: < 6.00; pIC50 [5]: 6.52; pIC50 [7]: < 6.00
